Patent US20110311649A1, “NOVEL IMIDAZOLE DERIVATIVES” (SYNGENTA CROP PROTECTION, INC., priority 2007, published 2011)

Columns and labels:
Assay type in all cases: in vivo
Alternaria solani = experiment: Alternaria solani/Tomato/Preventive (action against Alternaria on tomato); details: 96 h, preventive spray, tomato plants cv. Roter Gnom, assessed 4 days after inoculation, read-out: inhibit fungal infestation
Experimental: (§1) Alternaria solani/Tomato/Preventive (Action Against Alternaria on Tomato) 4 weeks old tomato plants cv. Roter Gnom are treated with the formulated test compound in a spray chamber. Two days after application tomato plants are inoculated by spraying a spore suspension on the test plants. After an incubation period of 4 days at 22° C./18° C. and 95% r. h. in a greenhouse the disease incidence is assessed.

Botrytis cinerea = experiment: Botrytis cinerea/Tomato/Preventive (action against Botrytis on tomato); details: 72 h, preventive spray, tomato plants cv. Roter Gnom, assessed 3 days after inoculation, read-out: inhibit fungal infestation
Experimental: as §1, with “Botrytis cinerea/Tomato/Preventive (Action” for “Alternaria solani/Tomato/Preventive (Action”, “Against Botrytis” for “Against Alternaria”, “of 3” for “of 4”, “at 20°” for “at 22° C./18°”

[1] = system: Magnaporthe grisea (Pyricularia oryzae); experiment: whole plant or invertebrate; details: 144 h, read-out: inhibit fungal infestation
Septoria tritici = experiment: Septoria tritici/Wheat/Preventive (action against Septoria leaf spot on wheat); details: Zymoseptoria tritici, preventive spray, wheat plants cv. Riband, assessed 16-18 days after inoculation, read-out: inhibit fungal infestation
Experimental: Septoria tritici/Wheat/Preventive (Action Against Septoria Leaf Spot on Wheat) 2 weeks old wheat plants cv. Riband are treated with the formulated test compound in a spray chamber. One day after application wheat plants are inoculated by spraying a spore suspension (10^6 conidia/ml) on the test plants. After an incubation period of 1 day at 22° C./21° C. and 95% r. h. plants are kept at 22° C./21° C. and 70% r.h. in a greenhouse. The disease incidence is assessed 16-18 days after inoculation.

[2] = system: Pyrenophora teres (Helminthosporium teres); experiment: Pyrenophora teres (Helminthosporium teres)/Barley/Preventive (action against net blotch on barley); details: 96 h, preventive spray, barley plants cv. Regina, assessed 4 days after inoculation, read-out: inhibit fungal infestation
Experimental: Pyrenophora teres (Helminthosporium teres)/Barley/Preventive (Action Against Net Blotch on Barley) 1-week-old barley plants cv. Regina are treated with the formulated test compound in a spray chamber. Two days after application barley plants are inoculated by spraying a spore suspension (2.6×10^4 conidia/ml) on the test plants. After an incubation period of 4 days at 20° C. and 95% r. h. the disease incidence is assessed.

Uncinula necator = experiment: Uncinula necator/Grape/Preventive (action against powdery mildew on grape); details: Erysiphe necator, 168 h, preventive spray, grape seedlings cv. Gutedel, assessed 7 days after inoculation, read-out: inhibit fungal infestation
Experimental: Uncinula necator/Grape/Preventive (Action Against Powdery Mildew on Grape) 5 weeks old grape seedlings cv. Gutedel are treated with the formulated test compound in a spray chamber. One day after application grape plants are inoculated by shaking plants infected with grape powdery mildew above the test plants. After an incubation period of 7 days at 24° C./22° C. and 70% r. h. under a light regime of 14/10 h (light/dark) the disease incidence is assessed.

Puccinia recondita = experiment: Puccinia recondita/Wheat/Preventive (action against brown rust on wheat); details: 264 h, preventive spray, wheat plants cv. Arina, assessed 11 days after inoculation, read-out: inhibit fungal infestation
Experimental: Puccinia recondita/Wheat/Preventive (Action Against Brown Rust on Wheat) 1 week old wheat plants cv. Arina are treated with the formulated test compound in a spray chamber. One day after application wheat plants are inoculated by spraying a spore suspension ([…] uredospores/ml) on the test plants. After an incubation period of 1 day at 20° C. and 95% r. h. plants are kept for 10 days 20° C./18° C. (day/night) and 60% r.h. in a greenhouse. The disease incidence is assessed 11 days after inoculation.

Measured: inhibition at 200 ppm

Fc1cc(F)c(-c2c(Cl)nc(Cl)n2-c2ccc(Cl)nc2)c(F)c1 [I.j.209, 2-Chloro-5-[2,4-dichloro-5-(2,4,6-trifluoro-phenyl)-imidazol-1-yl]-pyridine]
not listed: Uncinula necator | Puccinia recondita
≥ 80%: all other assays above

Cc1nc(Cl)c(-c2c(F)cc(F)cc2F)n1-c1ccc(Cl)nc1 [I.j.210, 2-Chloro-5-[4-chloro-2-methyl-5-(2,4,6-trifluoro-phenyl)-imidazol-1-yl]-pyridine]
≥ 80%: all assays above

Cc1ccc(-n2c(C)nc(Cl)c2-c2c(F)cc(F)cc2F)cn1 [I.j.225, 5-[4-Chloro-2-methyl-5-(2,4,6-trifluoro-phenyl)-imidazol-1-yl]-2-methyl-pyridine]
≥ 80%: Alternaria solani | Uncinula necator | [1] | Septoria tritici

Fc1cc(F)c(-c2c(Cl)nc(Cl)n2-c2cnc3ccccc3c2)c(F)c1 [I.j.269, 3-[2,4-dichloro-5-(2,4,6-trifluoro-phenyl)-imidazol-1-yl]-quinoline]
≥ 80%: Alternaria solani | Uncinula necator | Septoria tritici | [2]

Cc1nc(Cl)c(-c2c(F)cc(F)cc2F)n1-c1cnc2ccccc2c1 [I.j.270, 3-[4-chloro-2-methyl-5-(2,4,6-trifluoro-phenyl)-imidazol-1-yl]-quinoline]
≥ 80%: all assays above

COc1cc(F)c(-c2c(Cl)nc(C)n2-c2ccc(Cl)nc2)c(F)c1 [I.m.210, 2-Chloro-5-[4-chloro-5-(2,6-difluoro-4-methoxy-phenyl)-2-methyl-imidazol-1-yl]-pyridine]
≥ 80%: all assays above

COc1cc(F)c(-c2c(Cl)nc(C)n2-c2ccc(OC)nc2)c(F)c1 [I.m.220, 5-[4-Chloro-5-(2,6-difluoro-4-methoxy-phenyl)-2-methyl-imidazol-1-yl]-2-methoxy-pyridine]
≥ 80%: all assays above

COc1cc(F)c(-c2c(Cl)nc(C)n2-c2ccc(C)nc2)c(F)c1 [I.m.225, 5-[4-Chloro-5-(2,6-difluoro-4-methoxy-phenyl)-2-methyl-imidazol-1-yl]-2-methyl-pyridine]
≥ 80%: all assays above
